In PubChem BioAssay (NCI) one finds TGI data, which are given here for eleven compounds.

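Following 48 hours of exposure in 96-well plates, responses at five concentrations were used to interpolate endpoints linearly. At the TGI there is no net growth.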 Bounds are passed on as bounds.

Some test systems named below: A498 renal; COLO 205 colon; HCT-116 colon; HCT-15 colon; HOP-62 NSCLC; M14 melanoma; NCI-H23 lung; OVCAR-4 ovarian; PC-3 prostate; SN12C renal.
Holding throughout (experiment): DTP human tumour cell line panel, 48 h

The TGI is the concentration at which net growth stops. Read a high TGI as lower sensitivity of the cells.

Consider `COc1cc(/C=C/C(=O)c2c(=O)o[nH][n+]2-c2ccccc2)ccc1[O-]`, for which the TGI in the assay on A498 renal was 20.2 µM; in the assay with COLO 205 colon, 27.2 µM; in the assay on HCT-116 colon, 5.67 µM; with HCT-15 colon, 6.12 µM; in the assay on HOP-62 NSCLC, 16 µM; in the assay with M14 melanoma it was 9.64 µM. The total growth inhibition concentration (TGI) with NCI-H23 lung worked out at 8.78 µM; in the assay with OVCAR-4 ovarian, 7.17 µM; in the assay with PC-3 prostate it was 21.7 µM; with SN12C renal, 5.3 µM.
For `COC(=O)[C@H]1[C@@H](C(C)C)O[C@@H](C(C)C)O[C@H]1C(F)(F)F`, the TGI in the assay on A498 renal, with COLO 205 colon, in the assay on HCT-116 colon, in the assay with HCT-15 colon, in the assay on HOP-62 NSCLC and in the assay with M14 melanoma was over 100 µM in each case. Further, the TGI in the assay on NCI-H23 lung, in the assay on OVCAR-4 ovarian, in the assay on PC-3 prostate and with SN12C renal was over 100 µM in each case.
`Cc1ccc(C2=NOC(=O)[C@@H]3CCCC[C@@H]23)cc1`: the TGI with A498 renal, with COLO 205 colon, in the assay on HCT-116 colon, in the assay on HCT-15 colon, with HOP-62 NSCLC and with M14 melanoma was over 100 µM in each case. Also, the total growth inhibition concentration (TGI) with NCI-H23 lung, in the assay on OVCAR-4 ovarian, with PC-3 prostate and with SN12C renal was over 100 µM each time.
Turning to `CCOP(=O)(OCC)C(Nc1cccc(F)c1)c1ccccc1` (centres undefined), the TGI in the assay with A498 renal, with COLO 205 colon, in the assay with HCT-116 colon, in the assay on HCT-15 colon, in the assay on HOP-62 NSCLC and in the assay on M14 melanoma was over 100 µM each time. The TGI in the assay on NCI-H23 lung, with OVCAR-4 ovarian, in the assay with PC-3 prostate and with SN12C renal was over 100 µM in each case.
For the compound `O=[N+]([O-])c1ccc2nc(-c3ccccn3)c(-c3ccccn3)nc2c1`, the TGI in the assay with A498 renal, in the assay with COLO 205 colon, in the assay with HCT-116 colon, in the assay with HCT-15 colon, in the assay with HOP-62 NSCLC and with M14 melanoma was over 100 µM each time. The TGI in the assay on NCI-H23 lung, in the assay with OVCAR-4 ovarian, with PC-3 prostate and with SN12C renal was over 100 µM in each case.
On to `CC1(C)OCC(C(O)C2OC(C)(C)OC2C=O)O1` (centres undefined), for which the TGI in the assay on A498 renal, in the assay with COLO 205 colon, in the assay with HCT-116 colon, with HCT-15 colon, with HOP-62 NSCLC and with M14 melanoma was over 100 µM each time. The TGI with NCI-H23 lung, in the assay with OVCAR-4 ovarian, with PC-3 prostate and in the assay on SN12C renal was over 100 µM throughout.
Regarding `COc1ccc2c(c1)C(N)=C(c1ccccc1)C2=O`, the TGI in the assay with A498 renal, in the assay with COLO 205 colon, in the assay on HCT-116 colon, in the assay on HCT-15 colon, with HOP-62 NSCLC and in the assay with M14 melanoma was over 100 µM in each case. For the same compound, the total growth inhibition concentration (TGI) in the assay with NCI-H23 lung, in the assay with OVCAR-4 ovarian, in the assay with PC-3 prostate and with SN12C renal was over 100 µM throughout.
As to `O=[N+]([O-])c1ccc(S[C@@H]2[C@H]3c4c(-c5ccccc5)[nH]c(-c5ccccc5)c4[C@@H]2C[C@H]3Cl)cc1`, the TGI in the assay on A498 renal was 89 µM; with COLO 205 colon, over 100 µM; in the assay with HCT-116 colon, 7.86 µM; in the assay with HCT-15 colon, 6.84 µM; in the assay with HOP-62 NSCLC it was 67.6 µM; in the assay with M14 melanoma, over 100 µM. For the same compound, the concentration for total growth inhibition (TGI) in the assay on NCI-H23 lung is 8.91 µM; with OVCAR-4 ovarian it was 5.4 µM; in the assay on PC-3 prostate, over 100 µM; with SN12C renal, 22.2 µM.
In the case of `NC(=S)N/N=C\c1ccc(OCc2cccc(COc3ccc(/C=N/NC(N)=S)cc3)n2)cc1`, the TGI in the assay with A498 renal, in the assay with COLO 205 colon, in the assay with HCT-116 colon, in the assay with HCT-15 colon, with HOP-62 NSCLC and with M14 melanoma was over 100 µM throughout. Besides, the TGI with NCI-H23 lung, in the assay on OVCAR-4 ovarian, in the assay on PC-3 prostate and with SN12C renal was over 100 µM each time.
As to `CCNc1ccc2c(c1)Cc1ccccc1-2`, the TGI in the assay with A498 renal, in the assay with COLO 205 colon, in the assay on HCT-116 colon, in the assay with HCT-15 colon, with HOP-62 NSCLC and in the assay with M14 melanoma was over 100 µM each time. For the same compound, the TGI in the assay on NCI-H23 lung, with OVCAR-4 ovarian, with PC-3 prostate and in the assay with SN12C renal was over 100 µM each time.
`COc1nc2c(c(=O)n1C)N[C@H]1[C@H](OC(C)=O)[C@@H](OC(C)=O)CO[C@H]1N2`: the TGI in the assay with A498 renal, in the assay with COLO 205 colon, with HCT-116 colon, in the assay on HCT-15 colon, in the assay with HOP-62 NSCLC and in the assay on M14 melanoma was over 100 µM throughout. Further, the TGI in the assay with OVCAR-4 ovarian, in the assay on PC-3 prostate and with SN12C renal was over 100 µM each time.
